What was measured:
Bovine heart PDE = Bovine heart PDE inhibition activity; assay type: biochemical; conditions: substrate [³H]-cyclic AMP, 37°C for 30 minutes; compound concentration not given
Method: [Bovine heart PDE inhibition activity]
Placed in a test tube were 50 µℓ of 0.5 M tris-HCl buffer (pH 7.5), 50 µℓ of 50 mM magnesium chloride, 50 µℓ of an enzyme solution (bovine heart, product of Boheringer Mannheim Yamanouchi Co., Ltd.), and a dimethylsulfoxide (DMSO) solution of the compound obtained in each example. Purified water was then added to a total volume of 450 µℓ, followed by incubation at 37°C for 3 minutes. Then, 50 µℓ or [³H]-cyclic AMP (0.01 mM, 1.0 x 1.0⁻⁶ dpm) as a substrate were added to initiate a reaction. After incubated at 37°C for 30 minutes, the test tube was heated for 3 minutes in a boiling water bath to terminate the reaction. After cooling, snake venem (500 µg) was added, followed by incubation at 37°C for 30 minutes. An ion-exchange resin ("Dowex-AG1-X8", trade name) was then added, followed by stirring and centrifugation. A supernatant was sampled and its radioactivity was measured by a liquid scintillation counter. Percent inhibition was determined in accordance with the following formula: [formula] where, C: Radioactivity when the compound in the example was not contained. S: Radioactivity when the compound in the example was added.

[1] = test system: Platelet phosphodiesterase (PDE); test: Platelet phosphodiesterase (PDE) inhibition activity in washed platelets; assay type: biochemical, rabbit; conditions: 500 µM as the final concentration of the compound; washed platelet mixture; substrate [³H]-cyclic AMP, 37°C for 30 minutes
Excerpt: [Preparation of washed platelets]
A rabbit was held on its back on a fixing table and, under non-anesthesia, the leg femoral artery was cannulated. Next, 2 mℓ of a 3.8% aqueous solution of sodium citrate were placed in a 20-mℓ plastic syringe and 18 mℓ of the arterial blood were collected. The syringe was caused to fall down 2-3 times so that its contents were mixed. The above procedures were repeated using 3-4 syringes. The blood so collected was transferred into a plastic-made test tube and centrifuged at 800 rpm for 10 minutes at room temperature to settle blood cells, whereby an upper layer (PRP) was obtained. The PRP was next centrifuged at 3000 rpm for 10 minutes so that platelets were collected. After 12.3 mM tris-HCl buffer (pH 7.4) containing 0.137 M of NaCl, 1.54 mM of EDTA and 20 mM of glucose was added to the platelets and pipetting was conducted thoroughly, centrifugation was conducted at 3000 rpm for 10 minutes. The above procedures were repeated twice. Precipitated platelets were re-suspended in the above tris-HCl buffer at a platelet concentration of 6.5 x 10⁻⁶ platelets/µℓ. They were used as washed platelets in the subsequent experiments.
[Platelet phosphodiesterase (PDE) inhibition activity]
Placed in a test tube were 50 µℓ of 0.5 M tris-HCl buffer (pH 7.5), 50 µℓ of 50 mM magnesium chloride, 200 µℓ of the washed platelet mixture, and a dimethylsulfoxide (DMSO) solution of the compound (500 µM as the final concentration of the compound) obtained in each example. Purified water was added to a total volume of 450 µℓ, followed by incubation at 37°C for 3 minutes. Then, 50 µℓ off [³H]-cyclic AMP (0.01 mM, 1.0 x 1.0⁻⁶ dpm) as a substrate were added to initiate a reaction. […] A supernatant was sampled and its radioactivity was measured by a liquid scintillation counter. Percent inhibition was determined in accordance with the following formula: [formula] where, C: Radioactivity when the compound in the example was not contained. S: Radioactivity when the compound in the example was added.

Compound	Inhibition rate (%) Bovine heart PDE (Bovine heart PDE) [%]	Inhibition rate (%) Platelet PDE [1] [%]
COc1cc2c(c(OC)c1OC)-c1c(cc(OC)c(OC)c1OC)C[C@@H]1COC(=O)C1=C2 (single isomer, unassigned) [Test Compound 8]	36.3	–
COc1cc2c(c(OC)c1OC)-c1c(cc3c(c1OC)OCO3)C[C@@H]1COC(=O)C1=C2 (single isomer, unassigned) [Test Compound 4, (3as,Sbiar)-3a,4-Dihydro-8,9,10,11-tetramethoxy-6,7-methylenedioxydibenzo[4,5:6,7]cycloocta-[1,2-c]furan-1(3H)-one]	0.0	23.1
COc1cc2c(c(OC)c1OC)-c1c(cc(OC)c(OC)c1OC)C[C@@H]1COC(=O)C1=C2 (single isomer, unassigned) [Test Compound 7]	50.9	–
COc1cc2c(c(OC)c1OC)-c1c(cc(OC)c3c1OCO3)C[C@@H]1COC(=O)C1=C2 [Test Compound 3, (3aS,Rbiar)-3a,4-Dihydro-6,9,10,11-tetramethoxy-7,8-methylenedioxydibenzo[4,5:6,7)cycloocta[1,2-c]furan-1(3H)-one]	19.5	–
COc1cc2c(c(OC)c1OC)-c1c(cc(O)c(O)c1OC)CC1COC(=O)C1=C2 (stereo not drawn) [Test Compound 6, (3aRS,SRbiar)-3a,4-Dihydro-6,7-dihydroxy-8,9,10,11-tetramethoxydibenzo[4,5:6,7]cycloocta[1,2-c]-furan-1(3H)-one]	90.5	–
COc1cc2c(c(OC)c1OC)-c1c(cc(OC)c3c1OCO3)C[C@H]1COC(=O)C1=C2 [Test Compound 5, (3aR,Sbiar)-3a,4-Dihydro-6,9,10,11-tetramethoxy-7,8-methylenedioxybenzo[4,5:6,7]cycloocta[1,2-c]furan-1(3H)-one]	2.8	44.0
COc1cc2c(c(OC)c1OC)-c1c(cc(O)c(O)c1OC)C[C@@H]1COC(=O)C1=C2 [Test Compound 1, (3aS,Rbiar)-3a,4-Dihydro-6,7-dihydroxy-8,9,10,11-tetramethoxydibenzo[4,5:6,7)cycloocta[1,2-c]furan-1(3H)-one]	85.0	–
COc1cc2c(c(OC)c1OC)-c1c(cc3c(c1OC)OCO3)C[C@@H]1COC(=O)C1=C2 (single isomer, unassigned) [Test Compound 2]	0.0	25.3

— patent EP0594890A1, “Polycyclic compounds, their preparation and their use as phosphodiesterases inhibitors” (TSUMURA & CO., priority 1992, dated 1994)
